The values that follow come from patent US10633379B2, “Bromodomain inhibitors” (AbbVie Inc., priority 2016, dated 2020).

Broadly, the Ki is the equilibrium dissociation constant of an inhibitor or competing ligand from its target.

One assay concerns the target BRD4 (BDI_K57-E168) (Homo sapiens (Human), UniProt O60885). As to the kind of experiment: TR-FRET bromodomain binding assay, BRD4 BDI. The conditions noted are these: mean Ki, calculated from IC50, probe Kd and probe concentration. The method, then:
(§1) A time-resolved fluorescence resonance energy transfer (TR-FRET) assay was used to determine the affinities of compounds of the Examples listed in Table 1 for each bromodomain of BRD4. His-tagged first (BDI: amino acids K57-E168) and second (BDII: amino acids E352-M457) bromodomains of BRD4 were expressed and purified. An Alexa647-labeled BET-inhibitor was used as the fluorescent probe in the assay.
(§2) Compound dilution series were prepared in DMSO via an approximately 3-fold serial dilution. Compound dilutions were added directly into white, low-volume assay plates (Perkin Elmer Proxiplate 384 Plus#6008280) using a Labcyte Echo in conjunction with Labcyte Access and Thermo Multidrop CombinL robotics. Compounds were then suspended in eight microliters (μL) of assay buffer (20 mM Sodium Phosphate, pH 6.0, 50 mM NaCl, 1 mM Ethylenediaminetetraacetic acid disodium salt dihydrate, 0.01% Triton X-100, 1 mM DL-Dithiothreitol) containing His-tagged bromodomain, Europium-conjugated anti-His antibody (Invitrogen PV5596) and Alexa-647-conjugated probe.
(§3) The final concentration of 1× assay mixture contained 2% DMSO, 12 nM His tagged BRD4 (BDI_K57-E168) and 100 nM probe or 4 nM His tagged BRD4 (BDII_E352-M457) and 30 nM probe, and 1 nM Europium-conjugated anti-His-tag antibody, and compound concentrations in the range of: 49.02 μM-0.61 nM or 0.98 μM-0.15 nM.
(§4) After a one-hour equilibration at room temperature, TR-FRET ratios were determined using an Envision multilabel plate reader (Ex 340, Em 495/520).
(§5) TR-FRET data were normalized to the means of 24 no-compound controls (“high”) and 8 controls containing 1 μM un-labeled probe (“low”). Percent inhibition was plotted as a function of compound concentration and the data were fit with the 4 parameter logistic equation to obtain IC50s. Inhibition constants (Ki) were calculated from the IC50s, probe Kd and probe concentration.

A further assay deals with BRD4 (BDII_E352-M457) (Homo sapiens (Human), UniProt O60885). As to the kind of experiment: TR-FRET bromodomain binding assay, BRD4 BDII. The conditions noted are these: mean Ki, calculated from IC50, probe Kd and probe concentration. The method, then:
as §1, §2, §3, §4, §5

As for `CCNC(=O)c1cc2c(-c3cc(C(O)(C(C)CC)C4CC4)cnc3Oc3c(C)cccc3C)cn(C)c(=O)c2[nH]1` (stereo not shown) [Example 27, 4-[5-(1-cyclopropyl-1-hydroxy-2-methylbutyl)-2-(2,6-dimethylphenoxy)pyridin-3-yl]-N-ethyl-6-methyl-7-oxo-6,7-dihydro-1H-pyrrolo[2,3-c]pyridine-2-carboxamide], the values for the Ki at BRD4 (BDI_K57-E168) and at BRD4 (BDII_E352-M457) were 44 nM and 1.8 nM, respectively.

Take `Cc1cc(C(C)(C)O)cc(C)c1Oc1ncc(C(C)(C)O)cc1-c1cn(C)c(=O)c2[nH]c(C(=O)NC(C)(C)C)cc12` [Example 125, N-tert-butyl-4-{5-(2-hydroxypropan-2-yl)-2-[4-(2-hydroxypropan-2-yl)-2,6-dimethylphenoxy]pyridin-3-yl}-6-methyl-7-oxo-6,7-dihydro-1H-pyrrolo[2,3-c]pyridine-2-carboxamide]: the results for the Ki at BRD4 (BDI_K57-E168) and at BRD4 (BDII_E352-M457) were 140 nM and 3.5 nM, respectively.

With `CCNC(=O)c1cc2c(-c3cc(C(O)(CC)CC(C)C)cnc3Oc3c(C)cccc3C)cn(C)c(=O)c2[nH]1` (stereo not shown) [Example 10, 4-[2-(2,6-dimethylphenoxy)-5-(3-hydroxy-5-methylhexan-3-yl)pyridin-3-yl]-N-ethyl-6-methyl-7-oxo-6,7-dihydro-1H-pyrrolo[2,3-c]pyridine-2-carboxamide], the Ki on BRD4 (BDI_K57-E168) is 715 nM; on BRD4 (BDII_E352-M457), 5.4 nM.

With `Cc1cc(F)cc(Cl)c1Oc1ncc(C(C)(C)O)cc1-c1cn(C)c(=O)c2[nH]c(C(=O)NC(C)(C)C(F)(F)F)cc12` [Example 58, 4-[2-(2-chloro-4-fluoro-6-methylphenoxy)-5-(2-hydroxypropan-2-yl)pyridin-3-yl]-6-methyl-7-oxo-N-(1,1,1-trifluoro-2-methylpropan-2-yl)-6,7-dihydro-1H-pyrrolo[2,3-c]pyridine-2-carboxamide], the Ki at BRD4 (BDI_K57-E168) was 723 nM; at BRD4 (BDII_E352-M457), 8.1 nM.

Regarding `Cc1cc(F)cc(Cl)c1Oc1ccc(C(C)(C)O)cc1-c1cn(C)c(=O)c2[nH]c(C(=O)NC(C)(C)C)cc12` [Example 53, N-tert-butyl-4-[2-(2-chloro-4-fluoro-6-methylphenoxy)-5-(2-hydroxypropan-2-yl)phenyl]-6-methyl-7-oxo-6,7-dihydro-1H-pyrrolo[2,3-c]pyridine-2-carboxamide], the values for the Ki on BRD4 (BDI_K57-E168) and at BRD4 (BDII_E352-M457) were 432 nM and 4.6 nM, respectively.

Regarding `CCNC(=O)c1cc2c(-c3cc(C(C)(O)c4ccccc4)cnc3Oc3c(C)cccc3C)cn(C)c(=O)c2[nH]1` (stereo not shown) [Example 16, 4-[2-(2,6-dimethylphenoxy)-5-(1-hydroxy-1-phenylethyl)pyridin-3-yl]-N-ethyl-6-methyl-7-oxo-6,7-dihydro-1H-pyrrolo[2,3-c]pyridine-2-carboxamide], the results for the inhibitory constant (Ki) at BRD4 (BDI_K57-E168) and on BRD4 (BDII_E352-M457) were 333 nM and 2.3 nM, respectively.

With `CCNC(=O)c1cc2c(-c3cc(C(C)(O)C(C)C)cnc3Oc3c(C)cccc3C)cn(C)c(=O)c2[nH]1` (stereo not shown) [Example 19, 4-[2-(2,6-dimethylphenoxy)-5-(2-hydroxy-3-methylbutan-2-yl)pyridin-3-yl]-N-ethyl-6-methyl-7-oxo-6,7-dihydro-1H-pyrrolo[2,3-c]pyridine-2-carboxamide], the figures for the Ki at BRD4 (BDI_K57-E168) and at BRD4 (BDII_E352-M457) were 196 nM and 4 nM, respectively.

On to `CCNC(=O)c1cc2c(-c3cc(C(C)(C)O)ccc3Oc3c(C)ccnc3C)cn(C)c(=O)c2[nH]1` [Example 74, 4-{2-[(2,4-dimethylpyridin-3-yl)oxy]-5-(2-hydroxypropan-2-yl)phenyl}-N-ethyl-6-methyl-7-oxo-6,7-dihydro-1H-pyrrolo[2,3-c]pyridine-2-carboxamide], for which the figures for the inhibitory constant (Ki) on BRD4 (BDI_K57-E168) and at BRD4 (BDII_E352-M457) were 551 nM and 3 nM, respectively.

As to `CCNC(=O)c1cc2c(-c3cc(C(C)(C)O)ccc3Oc3c(C)cc(C(C)(C)O)cc3C)cn(C)c(=O)c2[nH]1` [Example 107, N-ethyl-4-{5-(2-hydroxypropan-2-yl)-2-[4-(2-hydroxypropan-2-yl)-2,6-dimethylphenoxy]phenyl}-6-methyl-7-oxo-6,7-dihydro-1H-pyrrolo[2,3-c]pyridine-2-carboxamide], the Ki at BRD4 (BDI_K57-E168) was 231 nM; on BRD4 (BDII_E352-M457) it was 0.8 nM.

Regarding `CCNC(=O)c1cc2c(-c3cc(C(C)(C)O)ccc3Oc3c(C)cc(Br)cc3C)cn(C)c(=O)c2[nH]1` [Example 72, 4-[2-(4-bromo-2,6-dimethylphenoxy)-5-(2-hydroxypropan-2-yl)phenyl]-N-ethyl-6-methyl-7-oxo-6,7-dihydro-1H-pyrrolo[2,3-c]pyridine-2-carboxamide], the Ki on BRD4 (BDI_K57-E168) was 794 nM; at BRD4 (BDII_E352-M457), 1.3 nM.

`CCNC(=O)c1cc2c(-c3cc(C(O)(CC)C4CCCC4)cnc3Oc3c(C)cccc3C)cn(C)c(=O)c2[nH]1` (stereo not shown) [Example 11, 4-[5-(1-cyclopentyl-1-hydroxypropyl)-2-(2,6-dimethylphenoxy)pyridin-3-yl]-N-ethyl-6-methyl-7-oxo-6,7-dihydro-1H-pyrrolo[2,3-c]pyridine-2-carboxamide]: the Ki at BRD4 (BDI_K57-E168) is 170 nM; on BRD4 (BDII_E352-M457), 2.6 nM.

On to `Cc1cccc(Cl)c1Oc1ccc(C(C)(C)O)cc1-c1cn(C)c(=O)c2[nH]c(C(=O)NC(C)(C)C(F)(F)F)cc12` [Example 41, 4-[2-(2-chloro-6-methylphenoxy)-5-(2-hydroxypropan-2-yl)phenyl]-6-methyl-7-oxo-N-(1,1,1-trifluoro-2-methylpropan-2-yl)-6,7-dihydro-1H-pyrrolo[2,3-c]pyridine-2-carboxamide], for which the values for the Ki on BRD4 (BDI_K57-E168) and on BRD4 (BDII_E352-M457) were 759 nM and 4.8 nM, respectively.

Regarding `Cc1cccc(C(F)(F)F)c1Oc1ncc(C(C)(C)O)cc1-c1cn(C)c(=O)c2[nH]c(C(=O)NC(C)(C)C)cc12` [Example 45, N-tert-butyl-4-{5-(2-hydroxypropan-2-yl)-2-[2-methyl-6-(trifluoromethyl)phenoxy]pyridin-3-yl}-6-methyl-7-oxo-6,7-dihydro-1H-pyrrolo[2,3-c]pyridine-2-carboxamide], the Ki on BRD4 (BDI_K57-E168) was 1080 nM; at BRD4 (BDII_E352-M457) it was 12.5 nM.

As to `Cc1cccc(Cl)c1Oc1ccc(C(C)(C)O)cc1-c1cn(C)c(=O)c2[nH]c(C(=O)NC(C)(C)C)cc12` [Example 31, N-tert-butyl-4-[2-(2-chloro-6-methylphenoxy)-5-(2-hydroxypropan-2-yl)phenyl]-6-methyl-7-oxo-6,7-dihydro-1H-pyrrolo[2,3-c]pyridine-2-carboxamide], the results for the Ki at BRD4 (BDI_K57-E168) and at BRD4 (BDII_E352-M457) were 260 nM and 3.3 nM, respectively.

On to `CCNC(=O)c1cc2c(-c3cc(C4(O)CCC4)ccc3Oc3c(C)cc(F)cc3C)cn(C)c(=O)c2[nH]1` [Example 122, N-ethyl-4-[2-(4-fluoro-2,6-dimethylphenoxy)-5-(1-hydroxycyclobutyl)phenyl]-6-methyl-7-oxo-6,7-dihydro-1H-pyrrolo[2,3-c]pyridine-2-carboxamide], for which the Ki at BRD4 (BDI_K57-E168) is 308 nM; on BRD4 (BDII_E352-M457), 2 nM.

`CCNC(=O)c1cc2c(-c3cc(C(C)(C)O)ccc3C3=CCC(C)CC3)cn(C)c(=O)c2[nH]1` (stereo not shown) [Example 113, N-ethyl-4-[4-(2-hydroxypropan-2-yl)-4′-methyl[2′,3′,4′,5′-tetrahydro[1,1′-biphenyl]]-2-yl]-6-methyl-7-oxo-6,7-dihydro-1H-pyrrolo[2,3-c]pyridine-2-carboxamide]: the Ki on BRD4 (BDI_K57-E168) is 98 nM; on BRD4 (BDII_E352-M457), 1.5 nM.

Regarding `CCNC(=O)c1cc2c(-c3cc(C(C)(C)O)ccc3Oc3c(C)cc(F)cc3Cl)cn(C)c(=O)c2[nH]1` [Example 49, 4-[2-(2-chloro-4-fluoro-6-methylphenoxy)-5-(2-hydroxypropan-2-yl)phenyl]-N-ethyl-6-methyl-7-oxo-6,7-dihydro-1H-pyrrolo[2,3-c]pyridine-2-carboxamide], the Ki was 284 nM on BRD4 (BDI_K57-E168) and 1 nM at BRD4 (BDII_E352-M457).

Regarding `CCNC(=O)c1cc2c(-c3nc(C(C)(C)O)ccc3Oc3c(C)cc(F)cc3C)cn(C)c(=O)c2[nH]1` [Example 96, N-ethyl-4-[3-(4-fluoro-2,6-dimethylphenoxy)-6-(2-hydroxypropan-2-yl)pyridin-2-yl]-6-methyl-7-oxo-6,7-dihydro-1H-pyrrolo[2,3-c]pyridine-2-carboxamide], the Ki at BRD4 (BDI_K57-E168) was 801 nM; on BRD4 (BDII_E352-M457) it was 9.1 nM.

In the case of `CCNC(=O)c1cc2c(-c3cc(C(O)(C4CCCC4)C4CC4)cnc3Oc3c(C)cccc3C)cn(C)c(=O)c2[nH]1` (stereo not shown) [Example 24, 4-{5-[cyclopentyl(cyclopropyl)hydroxymethyl]-2-(2,6-dimethylphenoxy)pyridin-3-yl}-N-ethyl-6-methyl-7-oxo-6,7-dihydro-1H-pyrrolo[2,3-c]pyridine-2-carboxamide], the Ki was 79 nM on BRD4 (BDI_K57-E168) and 1.7 nM on BRD4 (BDII_E352-M457).

As to `CCNC(=O)c1cc2c(-c3cc([C@](C)(O)CO)ccc3Oc3c(C)cccc3C)cn(C)c(=O)c2[nH]1` (single isomer, unassigned) [Example 69, 4-{5-[(25)-1,2-dihydroxypropan-2-yl]-2-(2,6-dimethylphenoxy)phenyl}-N-ethyl-6-methyl-7-oxo-6,7-dihydro-1H-pyrrolo[2,3-c]pyridine-2-carboxamide], the values for the Ki at BRD4 (BDI_K57-E168) and at BRD4 (BDII_E352-M457) were 499 nM and 2.3 nM, respectively.
